Patent publication US6878364B2, “Animal model for flaviviridae infection” (Cornell Research Foundation, Inc., priority 2000, dated 2005)
Like-named read-outs stand apart in the source and are kept apart here.

What was measured:
in vitro = type: cell-based; settings: bovine
[1] = test system: cpBVDV (cytopathogenic NADL isolate of BVDV)
Description: (§1) BVDV stocks and titration: The cytopathogenic NADL isolate of BVDV (cpBVDV) was used for the purposes of this study. A viral stock was made by freeze-thaw of a bovine testicular cell line 5 days after infection with cpBVDV. Virus propagated in bovine cells and woodchuck cell cultures was tittered in NCL cells by measuring cytopathic effects (CPE). NCL cells grown to confluence, were passaged to 96 well microtiter plates at a density of 2×10^4 cells/well (5×10^5/cm^2) and incubated for one hour to allow cell attachment. After attachment, cell cultures were inoculated with serially diluted tissue culture supernatant samples. The endpoint BVDV titer was taken as the reciprocal of the last dilution in which cells were killed 5 days post-infection in one of three triplicate wells, assayed by methylene blue staining.
(§2) Methylene blue assay: A quantitative measure of cell numbers was obtained through reading the absorbance of methylene blue (Sigma, St. Louis, Mo.) uptake by viable cells. Briefly, three days after infection of cells with cpBVDV, cultures were rinsed with phosphate buffered saline (PBS; Life Technologies) followed by fixation in a Hanks balanced salt solution (HBSS; LifeTechnologies) consisting of 1.25% glutaraldehyde (Fisher Scientific, Fair Lawn, N.J.) and 0.06% methylene blue (Sigma), for 1 hour at 37° C. […] The absorbance of the methylene blue in solution was measured using an ELISA plate reader (Model EL311; Bio-Tek instruments Inc., Winooski, Vt.) with a light filter setting at 630 nm. A standard curve was established for each cell line relating absorbance with cell numbers. […]
(§3) The medium was replenished daily with drug and the antiviral effect, cytotoxicity, and reduction in viral yield determined after three days of treatment.
(§4) Cell killing due to cpBVDV infection and drug cytotoxicity was calculated for each experimental data point and plotted. […] A drug concentration sufficient to inhibit 50% of viral induced cell killing (ckEC50) was determined using a peak, log normal, 4 parameter equation. […] A selectivity index (SI) was determined as the CC50/EC90 ratio.

[2] = test system: cpBVDV (cytopathogenic NADL isolate of BVDV); remark: listed apart in the source
Description: Virus propagated in bovine cells and woodchuck cell cultures was tittered in NCL cells by measuring cytopathic effects (CPE). NCL cells grown to confluence, were passaged to 96 well microtiter plates at a density of 2×10^4 cells/well (5×10^5/cm^2) and incubated for one hour to allow cell attachment. After attachment, cell cultures were inoculated with serially diluted tissue culture supernatant samples. The endpoint BVDV titer was taken as the reciprocal of the last dilution in which cells were killed 5 days post-infection in one of three triplicate wells, assayed by methylene blue staining.
Antiviral assay: A lyophilized form of Ribavirin (Virazole^R; Viratek, Inc., Covina, Calif.) was dissolved in H2O to a yield a stock concentration of 100 mM and serially diluted two fold in culture medium prior to testing over a range of 100-0.049 μM. Ribavirin was evaluated in woodchuck WCH-8 cells and in bovine NCL cells in a 96 well format using the methylene blue assay to measure cell viability. The medium was replenished daily with drug and the antiviral effect, cytotoxicity, and reduction in viral yield determined after three days of treatment. […]
Cell killing due to cpBVDV infection and drug cytotoxicity was calculated for each experimental data point and plotted. […] A selectivity index (SI) was determined as the CC50/EC90 ratio.

HCV = settings: cited from earlier work
[3] = test system: cpBVDV (cytopathogenic NADL isolate of BVDV); experiment: microbe, parasite or virus in culture; settings: Bovine viral diarrhea virus isolates and strains, in Bos taurus, 72 h, read-out: ckEC50 (drug concentration sufficient to inhibit 50% of viral induced cell killing)
Description: as §1, §2, §3, §4

[4] = Cytotoxicity on uninfected woodchuck primary hepatocytes (CytoTox96); type: cell-based
[5] = Cytotoxicity on uninfected WCH-8 cells (methylene blue assay); type: cell-based; settings: woodchuck, uninfected woodchuck hepatic WCH-8 cells, three days of treatment
[6] = test system: cpBVDV (cytopathogenic NADL isolate of BVDV); remark: listed apart in the source
Description: as §1, §2, §3, §4

[7] = test system: cpBVDV (cytopathogenic NADL isolate of BVDV); experiment: microbe, parasite or virus in culture; settings: Bovine viral diarrhea virus isolates and strains, in Marmota monax, 72 h, read-out: ckEC50 (drug concentration sufficient to inhibit 50% of viral induced cell killing)
Description: as §1, §2, §3, §4

For `NC(=O)c1ncn([C@@H]2O[C@H](CO)[C@@H](O)[C@H]2O)n1` [Ribavirin, 1-β-D-ribofuranosyl-1-1,2,4-triazole-3-carboxamide], the CC50 at 3 days (in vitro) was 4.3 µM, the “selectivity index (CC50/tEC90)” value ([1]; WCH-8 cells) was 2.7 and the “tEC90 (drug concentration which reduced viral titers by 90%)” value ([1]; cpBVDV-infected WCH-8 cells, three days of treatment) was 1.1 µM. The “tEC90 (drug concentration which reduced viral titers by 90%)” value ([2]; cpBVDV-infected woodchuck primary hepatocytes) was 3 µM, the “selectivity index (CC50/tEC90)” value ([2]; woodchuck primary hepatocytes) was 14.9 and the “patients with serum amino transferase levels reduced to normal” value (HCV) was 40%. The EC50 [3] was 5.2 µM, the CC50 [4] was 44.8 µM and the CC50 at 3 days [5] was 2900 nM. The “selectivity index (CC50/tEC90)” value ([6]; NCL cells) was 1.7, the “tEC90 (drug concentration which reduced viral titers by 90%)” value ([6]; cpBVDV-infected NCL cells, three days of treatment) was 3.1 µM and the EC50 [7] was 1500 nM.
